Assay results as given in the NIST ThermoML archive (doi:10.1016/j.jct.2008.08.012).
± gives the expanded uncertainty stated by the source.

Experiments:
[1] = Molar enthalpy of transition or fusion; conditions: Crystal; DSC
[2] = Crystal; for mass density: 298.15 K, 101.33 kPa, mass and volume of pellet; for Normal melting temperature: DTA

Row | Molar enthalpy of transition or fusion [1] [kcal/mol] | mass density [2] [kg/m3] | Normal melting temperature [2] [°C] | Compound
1 | 4.37 ± 0.112 | 1140 ± 10 | 82.73 ± 0.39 | O=C1Cc2ccccc2CO1 [1,4-dihydro-3H-2-benzopyran-3-one]
2 | 4 ± 0.129 | 1140 ± 10 | 39.13 ± 0.39 | O=C1CCOc2ccccc21 [2,3-dihydro-4H-1-benzopyran-4-one]
